Results as given in PMC4702177, “Discovering new mTOR inhibitors for cancer treatment through virtual screening methods and in vitro assays” (Scientific Reports, 2016).
“Also recorded” adds a separate entry of the source.

Legend:
C6 (Glioma cell) = assay: In vitro cell proliferation assay; type: cell-based; conditions: C6 glioma, 48 h, highest concentration 100 μM, read-out: IC50 (anti-proliferative)
Procedure: (§1) Most human breast cancer cells and cervical cancer cells become resistant to current chemotherapeutic drugs due to mutation of apoptotic mechanisms. It has been reported that MCF-7 cells are resistant to most of the drugs approved by the US Food and Drug Administration (FDA), including paclitaxel, doxorubicin, 5-fluorouracil, etoposide, and camptothecin[31][32].
(§2) Cell proliferation was measured with an MTS assay (CellTiter 96 Aqueous ONE Solution kit; Promega, Madison, USA). MCF-7, HeLa, MGC-803, C6 and U87 cells in log-phase were seeded (5 × 10^3 cells/well) in 96-well plates for 24 h, and then the medium were replaced with fresh medium containing different concentrations of compounds. […] After incubation for 48 h, the cells were further incubated with 20 μL of MTS for 1–4 h at 37 °C in a humidified incubator with 5% CO2. The absorbance at 490 nm was measured using a mircoplate reader (Model680, Bio-Rad; Hercules, CA, USA). The inhibition rate (%) was calculated as equation (1): […]
(§3) IC50 values were determined from the results of at least three independent tests and calculated from the inhibition curves.

[1] = test system: HeLa (human cervical cancer cell); assay: In vitro cell proliferation assay; type: cell-based; conditions: Homo sapiens, 48 h, highest concentration 100 μM, read-out: IC50 (anti-proliferative)
Procedure: as §1, §2, §3

[2] = test system: MCF-7 (human breast cancer cell); assay: In vitro cell proliferation assay; type: cell-based; conditions: Homo sapiens, MCF7, 48 h, 48 h, highest concentration 100 μM, read-out: IC50 (anti-proliferative)
Procedure: as §1, §2, §3

[3] = test system: MGC-803 (human gastric cancer); assay: In vitro cell proliferation assay; type: cell-based; conditions: Homo sapiens, MGC-803, 48 h, 48 h, highest concentration 100 μM, read-out: IC50 (anti-proliferative)
Procedure: as §1, §2, §3

HeLa cells = assay: Cell cycle analysis by flow cytometry; type: cell-based, human; conditions: 2.74 and 5.48 μM, 24 hours
Procedure: To further explore the mechanism of cell growth inhibition by compound 17, we examined the effects of compound 17 on cell cycle distribution in HeLa cells using flow cytometry.
Cells cycle distribution was analyzed as previously described. In brief, HeLa cells (1.5 × 10^4/well) seeded in six-well plates were incubated with compound 17 for 24 h. Then, the cells were collected, washed twice with phosphate-buffered saline (PBS), and fixed in 70% cold ethanol at −20 °C overnight. Finally, the samples were stained with 50 μg/mL propidium iodide and 30 μg/mL of RNase A at 37 °C for 1 h. DNA content data were acquired using CELLQuest software on a flow cytometer (FACSCalibur; Becton Dickinson, Mountain View, CA, USA).

AKT1 (PKB alpha) = AKT1 (PKB alpha) (Homo sapiens, UniProt P31749); assay: SelectScreen kinase profiling; type: biochemical; conditions: mean ± SD of triplicate
Description: (§4) To characterize the kinase selectivity of compound 17, we profiled its ability to bind to a panel of 24 structurally related kinases using the SelectScreen Kinase Profiling Service (Life Technologies Corporation, Madison, WI).

AKT2 (PKB beta) = AKT2 (PKB beta) (Homo sapiens, UniProt P31751); assay: SelectScreen kinase profiling; type: biochemical; conditions: mean ± SD of triplicate
Description: as §4

AMPK A2/B1/G1 = AMPK A2/B1/G1 (Homo sapiens, UniProt P54646); assay: SelectScreen kinase profiling; type: biochemical; conditions: mean ± SD of triplicate
Description: as §4

CDK1/cyclin B = CDK1/cyclin B (Homo sapiens, UniProt P06493); assay: SelectScreen kinase profiling; type: biochemical; conditions: mean ± SD of triplicate
Description: as §4

DNA-PK = DNA-PK (Homo sapiens, UniProt P78527); assay: SelectScreen kinase profiling; type: biochemical; conditions: mean ± SD of triplicate
Description: as §4

PDK1 = PDK1 (Homo sapiens, UniProt O15530); assay: SelectScreen kinase profiling; type: biochemical; conditions: mean ± SD of triplicate
Description: as §4

PI4KB (PI4K beta) = PI4KB (PI4K beta) (Homo sapiens, UniProt Q9UBF8); assay: SelectScreen kinase profiling; type: biochemical; conditions: mean ± SD of triplicate
Description: as §4

PIK3C2A (PI3K-C2 alpha) = PIK3C2A (PI3K-C2 alpha) (Homo sapiens, UniProt O00443); assay: SelectScreen kinase profiling; type: biochemical; conditions: mean ± SD of triplicate
Description: as §4

PIK3C3 (hVPS34) = PIK3C3 (hVPS34) (Homo sapiens, UniProt Q8NEB9); assay: SelectScreen kinase profiling; type: biochemical; conditions: mean ± SD of triplicate
Description: as §4

[4] = target: PIK3CA/PIK3R1 (p110 alpha/p85 alpha) (Homo sapiens, UniProt P42336); assay: SelectScreen kinase profiling; type: biochemical; conditions: mean ± SD of triplicate
Description: as §4

[5] = target: PIK3CD/PIK3R1 (p110 delta/p85 alpha) (Homo sapiens, UniProt O00329); assay: SelectScreen kinase profiling; type: biochemical; conditions: mean ± SD of triplicate
Description: as §4

PRKCA (PKC alpha) = PRKCA (PKC alpha) (Homo sapiens, UniProt P17252); assay: SelectScreen kinase profiling; type: biochemical; conditions: mean ± SD of triplicate
Description: as §4

PRKCB1 (PKC beta I) = PRKCB1 (PKC beta I) (Homo sapiens, UniProt P05771); assay: SelectScreen kinase profiling; type: biochemical; conditions: mean ± SD of triplicate
Description: as §4

RPS6KB1 (p70S6K) = RPS6KB1 (p70S6K) (Homo sapiens, UniProt P23443); assay: SelectScreen kinase profiling; type: biochemical; conditions: mean ± SD of triplicate
Description: as §4

CDK1/cyclin B, sequence (P06493 whole entry): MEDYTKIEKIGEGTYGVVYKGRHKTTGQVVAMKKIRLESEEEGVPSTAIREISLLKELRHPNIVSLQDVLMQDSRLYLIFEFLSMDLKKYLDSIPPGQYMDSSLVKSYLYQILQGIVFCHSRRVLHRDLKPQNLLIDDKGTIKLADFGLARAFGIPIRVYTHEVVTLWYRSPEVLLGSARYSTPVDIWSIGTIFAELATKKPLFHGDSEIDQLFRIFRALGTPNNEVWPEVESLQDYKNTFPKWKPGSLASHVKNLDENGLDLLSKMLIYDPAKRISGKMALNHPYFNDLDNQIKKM
CDK1/cyclin B, sequence (P14635 whole entry partner): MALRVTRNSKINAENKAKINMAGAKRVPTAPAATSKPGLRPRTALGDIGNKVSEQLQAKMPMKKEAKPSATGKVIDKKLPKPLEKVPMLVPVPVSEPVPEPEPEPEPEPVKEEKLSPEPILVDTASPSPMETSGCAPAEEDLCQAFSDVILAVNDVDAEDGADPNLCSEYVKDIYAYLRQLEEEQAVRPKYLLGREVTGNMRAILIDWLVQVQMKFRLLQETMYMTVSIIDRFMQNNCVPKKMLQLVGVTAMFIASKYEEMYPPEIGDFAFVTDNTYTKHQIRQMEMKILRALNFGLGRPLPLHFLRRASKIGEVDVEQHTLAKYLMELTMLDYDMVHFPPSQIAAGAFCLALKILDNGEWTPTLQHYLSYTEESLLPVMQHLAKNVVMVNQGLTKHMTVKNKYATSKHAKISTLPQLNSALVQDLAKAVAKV
PRKCB1 (PKC beta I), sequence (P05771 whole entry): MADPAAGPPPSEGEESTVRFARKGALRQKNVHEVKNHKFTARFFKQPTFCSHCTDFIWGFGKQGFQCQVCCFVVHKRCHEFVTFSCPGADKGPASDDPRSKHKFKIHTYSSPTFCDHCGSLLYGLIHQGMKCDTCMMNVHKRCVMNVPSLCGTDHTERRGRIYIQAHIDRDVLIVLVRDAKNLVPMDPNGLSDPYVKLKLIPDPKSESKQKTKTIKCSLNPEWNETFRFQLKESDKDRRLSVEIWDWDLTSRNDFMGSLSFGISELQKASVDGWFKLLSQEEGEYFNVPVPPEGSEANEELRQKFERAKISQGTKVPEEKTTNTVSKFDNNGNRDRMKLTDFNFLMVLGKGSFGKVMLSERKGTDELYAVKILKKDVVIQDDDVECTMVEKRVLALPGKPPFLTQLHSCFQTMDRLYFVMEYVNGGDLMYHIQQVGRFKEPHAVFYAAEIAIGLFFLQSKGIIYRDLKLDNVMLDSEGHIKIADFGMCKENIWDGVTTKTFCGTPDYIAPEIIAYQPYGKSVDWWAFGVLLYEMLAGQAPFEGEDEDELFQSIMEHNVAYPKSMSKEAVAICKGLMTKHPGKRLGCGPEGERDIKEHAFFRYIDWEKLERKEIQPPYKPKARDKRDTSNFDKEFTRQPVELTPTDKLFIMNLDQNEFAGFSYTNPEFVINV
RPS6KB1 (p70S6K), sequence (P23443 whole entry): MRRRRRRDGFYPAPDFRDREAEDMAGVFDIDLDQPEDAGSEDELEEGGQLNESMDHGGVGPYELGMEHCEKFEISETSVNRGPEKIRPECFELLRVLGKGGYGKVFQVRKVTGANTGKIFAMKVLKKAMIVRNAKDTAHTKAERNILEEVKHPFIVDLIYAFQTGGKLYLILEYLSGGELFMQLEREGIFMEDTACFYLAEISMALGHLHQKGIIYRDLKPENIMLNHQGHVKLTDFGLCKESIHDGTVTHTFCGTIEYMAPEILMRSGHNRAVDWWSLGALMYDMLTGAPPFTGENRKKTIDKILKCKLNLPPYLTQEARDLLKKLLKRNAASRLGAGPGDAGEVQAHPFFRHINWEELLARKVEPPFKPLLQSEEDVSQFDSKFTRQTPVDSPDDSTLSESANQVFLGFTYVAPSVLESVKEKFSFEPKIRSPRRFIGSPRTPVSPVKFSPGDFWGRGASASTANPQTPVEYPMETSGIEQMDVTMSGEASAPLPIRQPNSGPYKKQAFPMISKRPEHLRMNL
AKT1 (PKB alpha), sequence (P31749 whole entry): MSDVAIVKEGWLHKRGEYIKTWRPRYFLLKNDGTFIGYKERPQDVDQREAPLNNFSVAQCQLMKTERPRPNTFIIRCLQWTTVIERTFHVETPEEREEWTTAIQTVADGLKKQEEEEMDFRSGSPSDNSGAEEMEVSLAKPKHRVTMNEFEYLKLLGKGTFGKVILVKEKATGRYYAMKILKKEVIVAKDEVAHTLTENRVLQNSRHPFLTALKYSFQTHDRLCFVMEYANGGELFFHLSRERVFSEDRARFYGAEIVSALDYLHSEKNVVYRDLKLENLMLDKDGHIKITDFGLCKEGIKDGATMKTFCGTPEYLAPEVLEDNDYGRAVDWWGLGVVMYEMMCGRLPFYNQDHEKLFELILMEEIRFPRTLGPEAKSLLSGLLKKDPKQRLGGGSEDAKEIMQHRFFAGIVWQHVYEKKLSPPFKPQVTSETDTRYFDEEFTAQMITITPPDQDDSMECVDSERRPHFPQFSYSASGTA
PIK3C3 (hVPS34), sequence (Q8NEB9 whole entry): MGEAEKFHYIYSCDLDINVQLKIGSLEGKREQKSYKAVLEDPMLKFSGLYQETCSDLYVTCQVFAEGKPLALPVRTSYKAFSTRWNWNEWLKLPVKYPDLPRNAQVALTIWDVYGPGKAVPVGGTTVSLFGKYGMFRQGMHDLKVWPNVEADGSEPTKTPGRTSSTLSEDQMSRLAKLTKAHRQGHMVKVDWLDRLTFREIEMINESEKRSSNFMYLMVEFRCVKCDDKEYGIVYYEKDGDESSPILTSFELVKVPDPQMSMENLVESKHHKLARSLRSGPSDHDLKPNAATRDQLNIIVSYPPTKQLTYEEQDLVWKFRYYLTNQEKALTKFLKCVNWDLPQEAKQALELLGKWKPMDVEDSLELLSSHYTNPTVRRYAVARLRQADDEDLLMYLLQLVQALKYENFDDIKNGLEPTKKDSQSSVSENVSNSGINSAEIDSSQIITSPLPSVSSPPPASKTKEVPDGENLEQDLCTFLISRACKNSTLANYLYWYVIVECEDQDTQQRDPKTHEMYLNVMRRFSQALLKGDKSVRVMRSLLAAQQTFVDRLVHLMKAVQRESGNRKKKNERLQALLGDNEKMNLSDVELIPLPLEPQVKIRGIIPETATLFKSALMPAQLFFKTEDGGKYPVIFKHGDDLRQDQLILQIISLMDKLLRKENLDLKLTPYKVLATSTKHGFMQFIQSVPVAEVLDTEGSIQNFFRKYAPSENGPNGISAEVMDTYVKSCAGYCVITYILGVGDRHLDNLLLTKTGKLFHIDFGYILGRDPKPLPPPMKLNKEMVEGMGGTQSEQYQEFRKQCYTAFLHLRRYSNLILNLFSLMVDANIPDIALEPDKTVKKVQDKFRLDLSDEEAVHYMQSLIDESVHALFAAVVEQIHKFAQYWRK
PI4KB (PI4K beta), sequence (Q9UBF8 whole entry): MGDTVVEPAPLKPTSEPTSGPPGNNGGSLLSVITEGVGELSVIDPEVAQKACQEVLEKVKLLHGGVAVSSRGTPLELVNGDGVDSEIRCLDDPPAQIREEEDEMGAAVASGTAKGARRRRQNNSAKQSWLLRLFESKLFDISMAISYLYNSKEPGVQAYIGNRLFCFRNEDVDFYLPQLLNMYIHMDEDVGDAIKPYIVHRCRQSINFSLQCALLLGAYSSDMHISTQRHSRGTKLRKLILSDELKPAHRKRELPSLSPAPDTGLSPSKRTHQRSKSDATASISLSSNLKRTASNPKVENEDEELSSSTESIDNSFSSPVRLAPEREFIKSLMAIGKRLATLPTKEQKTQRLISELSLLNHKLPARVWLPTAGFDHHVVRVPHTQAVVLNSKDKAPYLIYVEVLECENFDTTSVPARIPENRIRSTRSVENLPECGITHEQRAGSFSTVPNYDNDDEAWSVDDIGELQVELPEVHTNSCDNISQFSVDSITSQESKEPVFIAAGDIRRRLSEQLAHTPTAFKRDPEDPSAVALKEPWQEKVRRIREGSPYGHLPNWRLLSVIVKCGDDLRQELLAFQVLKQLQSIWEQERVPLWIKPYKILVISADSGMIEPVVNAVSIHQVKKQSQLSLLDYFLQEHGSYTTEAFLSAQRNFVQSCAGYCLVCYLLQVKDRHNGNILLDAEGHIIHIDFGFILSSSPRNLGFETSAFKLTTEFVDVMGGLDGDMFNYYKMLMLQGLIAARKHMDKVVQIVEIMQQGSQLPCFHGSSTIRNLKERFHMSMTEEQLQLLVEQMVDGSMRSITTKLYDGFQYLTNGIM
AKT2 (PKB beta), sequence (P31751 whole entry): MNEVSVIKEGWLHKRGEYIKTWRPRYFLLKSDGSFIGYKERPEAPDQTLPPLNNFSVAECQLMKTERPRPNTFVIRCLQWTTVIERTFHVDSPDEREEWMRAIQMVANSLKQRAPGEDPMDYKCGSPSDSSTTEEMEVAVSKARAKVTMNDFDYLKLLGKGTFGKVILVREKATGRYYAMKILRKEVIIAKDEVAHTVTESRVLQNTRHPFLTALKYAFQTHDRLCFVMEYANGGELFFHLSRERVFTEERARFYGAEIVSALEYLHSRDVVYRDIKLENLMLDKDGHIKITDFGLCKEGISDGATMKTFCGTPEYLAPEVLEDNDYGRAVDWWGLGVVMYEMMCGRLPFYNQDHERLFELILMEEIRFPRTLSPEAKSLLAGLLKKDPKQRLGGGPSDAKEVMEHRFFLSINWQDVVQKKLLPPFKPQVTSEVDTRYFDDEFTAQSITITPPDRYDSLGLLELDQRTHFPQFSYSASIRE

IC50 (C6 (Glioma cell)): 11.1 µM
IC50 [1]: 2.74 µM
IC50 [2]: 1.9 µM
IC50 [3]: 3.5 µM
inhibition at 10 µM (AKT1 (PKB alpha)): 22.7 ± 9.34%
inhibition at 10 µM (AKT2 (PKB beta)): 33.6 ± 3.23%
inhibition at 10 µM (AMPK A2/B1/G1): 33.8 ± 4.29%
inhibition at 10 µM (CDK1/cyclin B): 3.09 ± 2.31%
inhibition at 10 µM (DNA-PK): 61.9 ± 6.43%
inhibition at 10 µM (PDK1): 3.94 ± 3.24%
inhibition at 10 µM (PI4KB (PI4K beta)): 31.8 ± 1.18%
inhibition at 10 µM (PIK3C2A (PI3K-C2 alpha)): 28.6 ± 1.96%
inhibition at 10 µM (PIK3C3 (hVPS34)): -6.75 ± 8.78%
inhibition at 10 µM [4]: 56.4 ± 4.16%
inhibition at 10 µM [5]: 41.4 ± 0.63%
inhibition at 10 µM (PRKCA (PKC alpha)): 9.84 ± 3.05%
inhibition at 10 µM (PRKCB1 (PKC beta I)): 9.54 ± 0.09%
inhibition at 10 µM (RPS6KB1 (p70S6K)): -1.25 ± 1.53%
Compound: Nc1nn2c(nc(N)c3c(N)n[nH]c32)c1/N=N/c1ccccc1 [Compound 17]
cell cycle distribution (HeLa cells): arrests the cell cycle of HeLa at the G1/G0-phase; also recorded: induced an arrest of cell cycle at the G1/G0-phase
